Results reported in ChEMBL document CHEMBL5247592, “Discovery of novel VEGFR-2-PROTAC degraders based on the localization of lysine residues via recruiting VHL for the treatment of gastric cancer” (Eur J Med Chem, 2022).
Calls of active or inactive are those of the source. The calls are words filed in the database; no cut-off is given here.

What was measured:
[1] = tested on: HGC-27; assay: Antiproliferative activity against human HGC-27 cells assessed as inhibition of cell growth incubated for 72 hrs by MTT assay; assay type: functional, cell-based; details: HGC-27, 72 h
[2] = target: Vascular endothelial growth factor receptor 2 (Homo sapiens, UniProt P35968); assay: Inhibition of VEGFR2 (unknown origin) at 1 uM by caliper mobility shift assay relative to control
Chain of Vascular endothelial growth factor receptor 2 (P35968 whole entry): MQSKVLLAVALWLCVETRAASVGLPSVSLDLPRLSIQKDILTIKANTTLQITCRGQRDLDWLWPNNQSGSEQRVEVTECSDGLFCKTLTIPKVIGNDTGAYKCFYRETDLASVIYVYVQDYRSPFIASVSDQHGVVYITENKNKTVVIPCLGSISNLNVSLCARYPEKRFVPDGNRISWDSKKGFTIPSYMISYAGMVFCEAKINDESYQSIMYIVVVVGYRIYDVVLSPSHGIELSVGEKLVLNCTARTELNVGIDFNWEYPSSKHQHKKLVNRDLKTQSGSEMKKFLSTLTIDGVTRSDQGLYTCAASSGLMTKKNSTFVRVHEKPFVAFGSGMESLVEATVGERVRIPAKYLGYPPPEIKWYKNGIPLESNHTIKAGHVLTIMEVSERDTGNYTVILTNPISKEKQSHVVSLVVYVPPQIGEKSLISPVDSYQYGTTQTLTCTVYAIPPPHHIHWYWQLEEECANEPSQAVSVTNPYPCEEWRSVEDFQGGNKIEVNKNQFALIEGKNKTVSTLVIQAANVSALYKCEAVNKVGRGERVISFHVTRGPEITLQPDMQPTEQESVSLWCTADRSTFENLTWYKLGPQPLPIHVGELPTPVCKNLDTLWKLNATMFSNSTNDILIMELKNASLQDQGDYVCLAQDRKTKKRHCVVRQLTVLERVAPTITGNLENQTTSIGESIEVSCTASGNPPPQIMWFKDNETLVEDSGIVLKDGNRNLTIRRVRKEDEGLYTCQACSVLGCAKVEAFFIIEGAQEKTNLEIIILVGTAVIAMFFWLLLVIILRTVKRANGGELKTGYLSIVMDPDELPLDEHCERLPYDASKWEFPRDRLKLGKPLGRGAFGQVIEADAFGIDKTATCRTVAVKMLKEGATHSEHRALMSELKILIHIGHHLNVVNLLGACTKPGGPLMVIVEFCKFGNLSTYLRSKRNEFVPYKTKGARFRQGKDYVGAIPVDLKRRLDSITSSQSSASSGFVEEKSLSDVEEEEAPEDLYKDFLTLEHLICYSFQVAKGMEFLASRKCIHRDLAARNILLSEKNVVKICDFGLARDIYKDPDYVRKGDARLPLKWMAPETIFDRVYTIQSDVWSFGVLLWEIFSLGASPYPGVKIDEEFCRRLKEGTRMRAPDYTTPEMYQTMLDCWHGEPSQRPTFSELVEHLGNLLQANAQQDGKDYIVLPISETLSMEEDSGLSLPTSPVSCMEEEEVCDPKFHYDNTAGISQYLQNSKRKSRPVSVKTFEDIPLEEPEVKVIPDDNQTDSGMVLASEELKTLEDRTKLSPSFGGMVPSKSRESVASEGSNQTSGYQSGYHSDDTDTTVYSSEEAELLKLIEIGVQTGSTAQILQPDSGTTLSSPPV

[3] = target: T1, von Hippel-Lindau disease tumor suppressor/Vascular endothelial growth factor receptor 2 (Homo sapiens, UniProt P35968+P40337); assay: PROTAC activity at VHL/VEGFR2 in human HGC-27 cells assessed as induction of VEGFR2 degradation at 1 uM measured after 12 hrs by Western blot analysis relative to control; assay type: cell-based
T1 sequence (P35968 20-1356 limits assumed): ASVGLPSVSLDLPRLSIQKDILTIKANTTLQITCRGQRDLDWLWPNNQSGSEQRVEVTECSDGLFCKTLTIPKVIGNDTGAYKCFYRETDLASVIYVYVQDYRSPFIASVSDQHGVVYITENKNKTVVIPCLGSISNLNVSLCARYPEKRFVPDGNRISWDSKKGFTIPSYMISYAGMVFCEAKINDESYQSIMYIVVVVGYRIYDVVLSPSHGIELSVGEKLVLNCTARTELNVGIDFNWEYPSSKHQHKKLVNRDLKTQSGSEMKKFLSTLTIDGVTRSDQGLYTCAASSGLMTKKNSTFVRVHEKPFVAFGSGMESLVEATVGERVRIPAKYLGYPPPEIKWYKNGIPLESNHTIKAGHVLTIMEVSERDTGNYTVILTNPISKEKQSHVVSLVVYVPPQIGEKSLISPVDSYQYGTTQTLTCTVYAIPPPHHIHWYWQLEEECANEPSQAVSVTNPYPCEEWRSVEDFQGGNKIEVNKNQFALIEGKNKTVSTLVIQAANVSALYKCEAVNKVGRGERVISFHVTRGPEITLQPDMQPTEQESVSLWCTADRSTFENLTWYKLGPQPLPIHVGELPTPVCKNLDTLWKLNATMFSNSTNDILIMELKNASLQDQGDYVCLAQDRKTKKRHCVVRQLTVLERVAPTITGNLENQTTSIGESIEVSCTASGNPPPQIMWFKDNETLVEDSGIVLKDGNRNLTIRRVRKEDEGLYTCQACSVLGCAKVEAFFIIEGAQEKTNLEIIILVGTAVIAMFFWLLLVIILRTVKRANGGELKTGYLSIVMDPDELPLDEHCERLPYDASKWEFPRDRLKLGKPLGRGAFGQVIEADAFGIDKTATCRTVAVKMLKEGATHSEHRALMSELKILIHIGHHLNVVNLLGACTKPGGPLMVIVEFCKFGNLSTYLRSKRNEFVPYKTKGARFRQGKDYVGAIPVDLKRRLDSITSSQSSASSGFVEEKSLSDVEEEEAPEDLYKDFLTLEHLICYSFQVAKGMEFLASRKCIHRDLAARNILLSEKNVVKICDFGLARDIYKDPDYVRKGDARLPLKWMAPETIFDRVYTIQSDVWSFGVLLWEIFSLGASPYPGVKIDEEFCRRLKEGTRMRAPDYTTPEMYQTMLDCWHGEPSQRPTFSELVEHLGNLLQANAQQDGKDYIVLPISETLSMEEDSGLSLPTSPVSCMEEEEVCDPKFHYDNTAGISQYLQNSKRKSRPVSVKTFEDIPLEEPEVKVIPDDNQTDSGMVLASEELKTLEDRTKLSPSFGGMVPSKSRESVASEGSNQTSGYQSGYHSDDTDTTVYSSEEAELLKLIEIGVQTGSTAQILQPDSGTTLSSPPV
T1 sequence (P40337 whole entry partner): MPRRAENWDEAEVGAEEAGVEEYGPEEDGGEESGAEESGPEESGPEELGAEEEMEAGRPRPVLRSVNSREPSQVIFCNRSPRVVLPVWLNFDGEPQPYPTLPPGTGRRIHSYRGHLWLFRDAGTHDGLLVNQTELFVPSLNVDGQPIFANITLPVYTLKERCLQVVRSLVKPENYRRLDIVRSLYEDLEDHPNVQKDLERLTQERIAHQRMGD

[4] = target: T1, von Hippel-Lindau disease tumor suppressor/Vascular endothelial growth factor receptor 2; assay: PROTAC activity at VHL/VEGFR2 in human HGC-27 cells assessed as induction of VEGFR2 degradation at 1 uM measured after 36 hrs by Western blot analysis relative to control; assay type: cell-based
[5] = target: T1, von Hippel-Lindau disease tumor suppressor/Vascular endothelial growth factor receptor 2; assay: PROTAC activity at VHL/VEGFR2 in human HGC-27 cells assessed as residual activity by measuring VEGFR2 expression level at 1 uM incubated for 24 hrs followed by compound washout and measured after 4 hrs by Western blot analysis relative to control; assay type: cell-based
[6] = target: T1, von Hippel-Lindau disease tumor suppressor/Vascular endothelial growth factor receptor 2; assay: (§1) PROTAC activity at VHL/VEGFR2 in human HGC-27 cells assessed as induction of VEGRF2 protein degradation at 1 uM preincubated with 4-Amino-N-(6-(1-(2-((4-methyl-3-(trifluoromethyl)phenyl)amino)-2-oxoethyl)-1H-pyrazol-4-y1)-1H-indazol-3-Abenzamide for 2 hrs followed by compound addition and measured after 24 hrs by Western blot analysis; assay type: cell-based
[7] = target: T1, von Hippel-Lindau disease tumor suppressor/Vascular endothelial growth factor receptor 2; assay: PROTAC activity at VHL/VEGFR2 in human HGC-27 cells assessed as induction of VEGRF2 protein degradation at 1 uM preincubated with VH032 for 2 hrs followed by compound addition and measured after 24 hrs by Western blot analysis; assay type: cell-based
[8] = target: T1, von Hippel-Lindau disease tumor suppressor/Vascular endothelial growth factor receptor 2; assay: as §1, with “reduction in relative” for “induction of”, “expression level” for “protein degradation”; assay type: cell-based
[9] = target: T1, von Hippel-Lindau disease tumor suppressor/Vascular endothelial growth factor receptor 2; assay: PROTAC activity at VHL/VEGFR2 in human HGC-27 cells assessed as reduction in relative VEGRF2 expression level at 1 uM preincubated with VH032 for 2 hrs followed by compound addition and measured after 24 hrs by Western blot analysis; assay type: cell-based
[10] = target: T1, von Hippel-Lindau disease tumor suppressor/Vascular endothelial growth factor receptor 2; assay: PROTAC activity at VHL/VEGFR2 in human HGC-27 cells assessed as induction of VEGRF2 protein degradation at 1 uM preincubated with MG-132 for 2 hrs followed by compound addition and measured after 24 hrs by Western blot analysis; assay type: cell-based
[11] = target: T1, von Hippel-Lindau disease tumor suppressor/Vascular endothelial growth factor receptor 2; assay: PROTAC activity at VHL/VEGFR2 in human HGC-27 cells assessed as reduction in VEGFR2 protein expression at 1 uM measured upto 24 hrs in the presence of cycloheximide by Western blot analysis; assay type: cell-based
[12] = Effect on VEGFR2 mRNA expression in human HGC-27 cells at 1 uM incubated for 24 hrs by qPCR analysis relative to control; assay type: functional
[13] = Effect on VEGFR2 mRNA expression in human HGC-27 cells at 3.33 uM incubated for 24 hrs by qPCR analysis relative to control; assay type: functional
[14] = tested on: HGC-27; assay: Inhibition of colony formation in human HGC-27 cells at 1 to 3.33 uM incubated for 8 days by crystal violet staining based analysis relative to control; assay type: functional; details: dose 1-3.33 µM, time 8 day
[15] = tested on: HGC-27; assay: Inhibition of cell migration in human HGC-27 cells assessed as suppression of cell migration at 3.3 uM incubated for 6 hrs by wound healing assay relative to control; assay type: functional
[16] = tested on: HGC-27; assay: Inhibition of cell migration in human HGC-27 cells assessed as suppression of cell migration at 1 uM incubated for 24 hrs by wound healing assay relative to control; assay type: functional
[17] = tested on: HGC-27; assay: Antiinvasive activity in human HGC-27 cells assessed as reduction in number of invasive cells at 0.033 uM incubated for 24 hrs by transwell invasion assay (reference value: 118); assay type: functional
[18] = tested on: HGC-27; assay: Antiinvasive activity in human HGC-27 cells assessed as reduction in number of invasive cells at 0.1 uM incubated for 24 hrs by transwell invasion assay (reference value: 118); assay type: functional
[19] = tested on: HGC-27; assay: Induction of apoptosis in human HGC-27 cells assessed as viable cells at 0.033 uM incubated for 24 hrs by Annexin V-FITC/PI staining based analysis (reference value: 95.3%); assay type: functional; details: read-out: Activity
[20] = tested on: HGC-27; assay: Induction of apoptosis in human HGC-27 cells assessed as necrotic cells at 0.033 uM incubated for 24 hrs by Annexin V-FITC/PI staining based analysis (reference value: 0.65 %); assay type: functional
[21] = tested on: HGC-27; assay: Induction of apoptosis in human HGC-27 cells assessed as viable cells at 0.1 uM incubated for 24 hrs by Annexin V-FITC/PI staining based analysis (reference value: 95.3%); assay type: functional; details: read-out: Activity
[22] = tested on: HGC-27; assay: Induction of apoptosis in human HGC-27 cells assessed as early apoptotic cells at 0.1 uM incubated for 24 hrs by Annexin V-FITC/PI staining based analysis (reference value: 1.7 %); assay type: functional
[23] = tested on: HGC-27; assay: Induction of apoptosis in human HGC-27 cells assessed as late apoptotic cells at 0.1 uM incubated for 24 hrs by Annexin V-FITC/PI staining based analysis (reference value: 3%); assay type: functional
[24] = tested on: HGC-27; assay: Induction of apoptosis in human HGC-27 cells assessed as necrotic cells at 0.1 uM incubated for 24 hrs by Annexin V-FITC/PI staining based analysis (reference value: 0.65 %); assay type: functional
[25] = tested on: HGC-27; assay: Induction of apoptosis in human HGC-27 cells assessed as viable cells at 0.33 uM incubated for 24 hrs by Annexin V-FITC/PI staining based analysis (reference value: 95.3%); assay type: functional; details: read-out: Activity
[26] = tested on: HGC-27; assay: Induction of apoptosis in human HGC-27 cells assessed as late apoptotic cells at 1 uM incubated for 24 hrs by Annexin V-FITC/PI staining based analysis (reference value: 3%); assay type: functional
[27] = tested on: HGC-27; assay: Induction of apoptosis in human HGC-27 cells assessed as early apoptotic cells at 3.3 uM incubated for 24 hrs by Annexin V-FITC/PI staining based analysis (reference value: 1.7 %); assay type: functional
[28] = tested on: HGC-27; assay: Induction of cell cycle arrest in human HGC-27 cells assessed as G0/G1 phase cells at 0.033 uM incubated for 24 hrs by PI staining based flow cytometric analysis (reference value: 47.4%); assay type: functional
[29] = tested on: HGC-27; assay: Induction of cell cycle arrest in human HGC-27 cells assessed as S phase cells at 0.033 uM incubated for 24 hrs by PI staining based flow cytometric analysis (reference value: 26.4%); assay type: functional
[30] = tested on: HGC-27; assay: Induction of cell cycle arrest in human HGC-27 cells assessed as G2/M phase cells at 0.1 uM incubated for 24 hrs by PI staining based flow cytometric analysis (reference value: 13.3%); assay type: functional
[31] = tested on: HGC-27; assay: Induction of cell cycle arrest in human HGC-27 cells assessed as G2/M phase cells at 0.33 uM incubated for 24 hrs by PI staining based flow cytometric analysis (reference value: 13.3%); assay type: functional
[32] = tested on: HGC-27; assay: Induction of cell cycle arrest in human HGC-27 cells assessed as G0/G1 phase cells at 1 uM incubated for 24 hrs by PI staining based flow cytometric analysis (reference value: 47.4%); assay type: functional

**Q.** Which IC50 [1] does the source give for `Cc1ccc(NC(=O)Cn2cc(-c3ccc4c(NC(=O)c5ccc(NC(=O)CCCCCCCCC(=O)N[C@H](C(=O)N6C[C@H](O)C[C@H]6C(=O)NCc6ccc(-c7scnc7C)cc6)C(C)(C)C)cc5)n[nH]c4c3)cn2)cc1C(F)(F)F` here?
**A.** Its IC50 is 2.03 µM.

**Q.** And the inhibition [2]?
**A.** Its inhibition is 97.5%.

**Q.** And the Activity [3]?
**A.** The Activity was 33.3%.

**Q.** And the Activity [4]?
**A.** The Activity was 60.6%.

**Q.** What about the Activity [5] of the same compound?
**A.** The Activity was 32.8%.

**Q.** And the Activity [6]?
**A.** The Activity was “inactive”.

**Q.** What about the Activity [7] of the same compound?
**A.** Its Activity is “inactive”.

**Q.** What about the Activity [8] of the same compound?
**A.** Its Activity is “inactive”.

**Q.** And the Activity [9]?
**A.** The Activity was “inactive”.

**Q.** And the Activity [10]?
**A.** The Activity was “inactive”.

**Q.** And the Activity [11]?
**A.** The Activity was “Active”.

**Q.** What about the Activity [12] of the same compound?
**A.** The Activity was 91.3%.

**Q.** And the Activity [13]?
**A.** Its Activity is 105.3%.

**Q.** What about the “inhibition (INH)” value [14] of the same compound?
**A.** The value was 100%.

**Q.** And the inhibition at 3.3 µM [15]?
**A.** The inhibition at 3.3 µM was 12.3%.

**Q.** What about the inhibition at 1 µM [16] of the same compound?
**A.** Its inhibition at 1 µM is 21.2%.

**Q.** And the Activity [17]?
**A.** Its Activity is 116.

**Q.** And the Activity [18]?
**A.** The Activity was 100.

**Q.** What about the viability at 0.033 µM [19] of the same compound?
**A.** Its viability at 0.033 µM is 93%.

**Q.** What about the Activity [20] of the same compound?
**A.** The Activity was 0.32%.

**Q.** And the viability at 0.1 µM [21]?
**A.** The viability at 0.1 µM was 92.1%.

**Q.** And the Activity [22]?
**A.** Its Activity is 3.5%.

**Q.** And the Activity [23]?
**A.** Its Activity is 4.2%.

**Q.** And the Activity [24]?
**A.** Its Activity is 0.46%.

**Q.** And the viability at 0.33 µM [25]?
**A.** The viability at 0.33 µM was 89.1%.

**Q.** What about the Activity [26] of the same compound?
**A.** The Activity was 14.2%.

**Q.** And the Activity [27]?
**A.** Its Activity is 15%.

**Q.** What about the Activity [28] of the same compound?
**A.** The Activity was 41.1%.

**Q.** What about the Activity [29] of the same compound?
**A.** The Activity was 27.9%.

**Q.** And the Activity [30]?
**A.** Its Activity is 18.2%.

**Q.** And the Activity [31]?
**A.** Its Activity is 37.7%.

**Q.** And the Activity [32]?
**A.** The Activity was 12.5%.
